Measurements reported in US20260048052A1, “METHODS OF TREATING TENOSYNOVIAL GIANT CELL TUMORS” (Deciphera Pharmaceuticals, LLC, priority 2023, published 2026).
Several values for one entry are separate records, joined by “and”; a condition that tells them apart may be missing. Equal entries are not always repeated.

What was measured:
[1] = test system: patients with TGCT not amenable to surgery; test: Phase 3 study of vimseltinib in patients with TGCT: safety (TEAEs, Part 1); format: in vivo, human
Experimental: This study is a two-part, randomized, double-blind, placebo-controlled study to assess the efficacy and safety of vimseltinib in patients with TGCT not amenable to surgery with no prior anti-CSF1/CSF1R therapy (prior therapy with imatinib or nilotinib allowed). In Part 1, patients (n=123) were randomized two-to-one to receive either 30 mg twice weekly of vimseltinib (n=83) or placebo (n=40) for 24 weeks. Vimseltinib or matching placebo was administered orally each week on day 1 and day 5 (±1 day) at approximately the same time of day on an empty stomach, with ≥24 hours between doses. An MRI of the affected joint was performed at screening, cycle 4 day 1 (week 13; ±7 days), and at the end of Part 1. Part 2 is an ongoing open-label study, in which patients from both the vimseltinib and placebo arms receive treatment with vimseltinib.
The primary endpoint of the study is the objective response rate (ORR) at Week 25 as measured by Response Evaluation Criteria in Solid Tumors (RECIST) version 1.1 by blinded independent radiologic review (IRR). Key secondary endpoints included the objective response rate at Week 25 by IRR per tumor volume score (TVS), active range of motion (ROM) at Week 25, PROMIS physical function (PROMIS-PF) score, worst stiffness numeric rating scale (NRS) score at Week 25, EQ-visual analogue scale (EQ-VAS) score at Week 25, and greater than or equal to 30% reduction in Brief Pain Inventory (BPI) in worst pain and less than 30% increase in narcotic use (BPI-30) at Week 25. Other secondary endpoints included duration of response (DOR) and safety.
Vimseltinib was well-tolerated and the safety profile in the study was consistent with previously disclosed data. […] Patients with treatment-emergent adverse events (TEAEs) leading to treatment discontinuation was 5% in the vimseltinib arm. The table below lists TEAEs greater than 15% in either arm during Part 1 of the study.

patients with TGCT = test: Phase 1/2 open-label, multicenter study of vimseltinib in patients with TGCT: efficacy; format: in vivo, human; conditions: for Worst stiffness NRS response rate / Worst stiffness NRS response rate, n of responders: Week 25, response = at least a 2-point decrease; for PROMIS-PF response rate / PROMIS-PF response rate, No. of responders: Week 25, response = at least a 3-point increase; for Active ROM response rate / Active ROM response rate, No. of responders: Week 25, response = at least a 10% increase
Experimental: This is a Phase 1/2 open-label, multicenter study evaluating the safety and efficacy of vimseltinib in patients with TGCT. In Phase 1, 32 patients enrolled in three cohorts across multiple doses. In Phase 2, 66 patients enrolled in two cohorts at the recommended Phase 2 dose of 30 mg twice weekly: Cohort A (n=46) in TGCT patients with no prior anti-CSF1/CSF1R therapy (prior therapy with imatinib or nilotinib allowed); and Cohort B (n=20) in TGCT patients with prior anti-CSF1/CSF1R therapy (prior therapy with imatinib or nilotinib alone not eligible). With regards to antitumor activity and treatment duration, 93 patients were evaluable for efficacy by RECIST version 1.1 at the data cutoff date.

[2] = 30 mg twice weekly, n=83, Part 1
[3] = Cohort A, Partial Response per RECIST v1.1 at Week 25 by IRR (n = 17)
[4] = Cohort A, Stable Disease per RECIST v1.1 at Week 25 by IRR (n = 22)
[5] = Cohort B (20 patients), Week 25
[6] = Cohort B, Partial Response per RECIST v1.1 at Week 25 by IRR (n = 5)
[7] = Cohort B, Stable Disease per RECIST v1.1 at Week 25 by IRR (n = 9)
[8] = Phase 2 Cohort A (n = 45), second data cutoff
[9] = Phase 2 Cohort B (n = 13), second data cutoff
[10] = Phase 2 Cohort B (n = 19), second data cutoff

## Cc1nc(-c2cnc(NC(C)C)n(C)c2=O)ccc1Oc1ccnc(-c2cnn(C)c2)c1 [Vimseltinib, 2-(isopropylamino)-3-methyl-5-(6-methyl-5-((2-(1-methyl-IH-pyrazol-4-yl)pyridin-4-yl)oxy)pyridin-2-yl)pyrimidin-4(3H)-one]
[1]; 30 mg twice weekly
  cholestatic hepatotoxicity: no evidence of cholestatic hepatotoxicity
  related SAE: one related SAE of subcutaneous abscess
  severe adverse events (SAE) per patient: no severe adverse event (SAE) occurred in more than one patient
  tolerability: well-tolerated
[1]; [2]
  TEAE AST increased, All Grades: 19 (23%) n (%)
  TEAE AST increased, Grade 3-4, number of patients: 0 n
  TEAE Arthralgia, All Grades: 16 (19%) n (%)
  TEAE Arthralgia, Grade 3-4, number of patients: 0 n
  TEAE Asthenia, All Grades: 22 (27%) n (%)
  TEAE Asthenia, Grade 3-4, number of patients: 1 n
  TEAE Asthenia, Grade 3-4, percent of patients: (1%)
  TEAE CPK increased, All Grades: 20 (24%) n (%)
  TEAE CPK increased, Grade 3-4, number of patients: 8 n
  TEAE CPK increased, Grade 3-4, percent of patients: 10%
  TEAE Diarrhea, All Grades: 10 (12%) n (%)
  TEAE Diarrhea, Grade 3-4, number of patients: 0 n
  TEAE Edema peripheral, All Grades: 15 (18%) n (%)
  TEAE Edema peripheral, Grade 3-4, number of patients: 0 n
  TEAE Face edema, All Grades: 26 (31%) n (%)
  TEAE Face edema, Grade 3-4, number of patients: 1 n
  TEAE Face edema, Grade 3-4, percent of patients: (1%)
  TEAE Fatigue, All Grades: 27 (33%) n (%)
  TEAE Fatigue, Grade 3-4, number of patients: 0 n
  TEAE Headache, All Grades: 23 (28%) n (%)
  TEAE Headache, Grade 3-4, number of patients: 1 n
  TEAE Headache, Grade 3-4, percent of patients: (1%)
  TEAE Hypertension, All Grades: 14 (17%) n (%)
  TEAE Hypertension, Grade 3-4, number of patients: 4 n
  TEAE Hypertension, Grade 3-4, percent of patients: (5%)
  TEAE Nausea, All Grades: 21 (25%) n (%)
  TEAE Nausea, Grade 3-4, number of patients: 0 n
  TEAE Periorbital edema, All Grades: 37 (45%) n (%)
  TEAE Periorbital edema, Grade 3-4, number of patients: 3 n
  TEAE Periorbital edema, Grade 3-4, percent of patients: (4%)
  TEAE Pruritus, All Grades: 24 (29%) n (%)
  TEAE Pruritus, Grade 3-4, number of patients: 2 n
  TEAE Pruritus, Grade 3-4, percent of patients: (2%)
  TEAE Rash maculo-papular, All Grades: 16 (19%) n (%)
  TEAE Rash maculo-papular, Grade 3-4, number of patients: 1 n
  TEAE Rash maculo-papular, Grade 3-4, percent of patients: (1%)
  TEAE Rash, All Grades: 16 (19%) n (%)
  TEAE Rash, Grade 3-4, number of patients: 0 n
[1]; 30 mg twice weekly, n=83, Part 1, listed as Vimseltinb
  TEAE CPK increased, Grade 3-4, percent of patients: (10%)
[1]; vimseltinib arm
  Patients with TEAEs leading to treatment discontinuation: 5%
Patients with TGCT; Cohort A (32 patients)
  Worst stiffness NRS at Week 25, mean: 3.1
Patients with TGCT; Cohort A (35 patients)
  PROMIS-PF at Week 25, mean: 43.9
Patients with TGCT; Cohort A (46 patients), Week 25
  BPI worst pain response rate: (50) %
Patients with TGCT; Cohort A (46 patients), Week 25, 30% or greater decrease without 30% or greater increase in narcotic analgesic use
  BPI worst pain response rate, No. of responders: 23 No.
Patients with TGCT; [3]
  Average pain responder: 12 (71) No. (%)
  Worst pain responder: 10 (59) No. (%)
Patients with TGCT; [4]
  Average pain responder: 12 (55) No. (%)
  Worst pain responder: 12 (55) No. (%)
Patients with TGCT; Cohort A, Week 25
  PROMIS-PF change from baseline, mean: 3.9
  Worst stiffness NRS change from baseline, mean: −1.8
Patients with TGCT; Cohort A
  Worst stiffness NRS response rate: (66) %
  Worst stiffness NRS response rate, n of responders: 21 n
  PROMIS-PF response rate: (49) %
  PROMIS-PF response rate, No. of responders: 17 No.
  Active ROM response rate: (42) %
  Active ROM response rate, No. of responders: 19 No.
Patients with TGCT; Cohort B (11/20), Week 25, ≥30% reduction in pain without ≥30% increase in narcotic analgesic use
  patients with BPI response for both worst pain and average pain: 55%
Patients with TGCT; Cohort B (14 patients)
  Worst stiffness NRS at Week 25, mean: 2.6
Patients with TGCT; Cohort B (15 patients)
  PROMIS-PF at Week 25, mean: 49.5
Patients with TGCT; [5]
  BPI worst pain response rate: (55) %
  BPI worst pain response rate, No. of responders: 11 No.
Patients with TGCT; [6]
  Average pain responder: 2 (40) No. (%)
  Worst pain responder: 2 (40) No. (%)
Patients with TGCT; [7]
  Average pain responder: 7 (78) No. (%)
  Worst pain responder: 7 (78) No. (%)
Patients with TGCT; Cohort B, Week 25
  BPI responders among patients with objective responses by RECIST v1.1: 40%
  BPI responders among patients with stable disease: 78%
  PROMIS-PF change from baseline, mean: 6.2
  Worst stiffness NRS change from baseline, mean: −2.2
  patients with clinically meaningful improvements in NRS stiffness: 58%
  patients with clinically meaningful improvements in PROMIS-PF: 63%
Patients with TGCT; Cohort B
  Worst stiffness NRS response rate: (71) %
  Worst stiffness NRS response rate, n of responders: 10 n
  PROMIS-PF response rate: (80) %
  PROMIS-PF response rate, No. of responders: 12 No.
  Active ROM response rate: (26) %
  Active ROM response rate, No. of responders: 5 No.
Patients with TGCT; Phase 1 (n = 32), multiple doses, first data cutoff
  ORR per RECIST v1.1 by IRR: 72%
Patients with TGCT; Phase 2, second data cutoff
  progression as assessed by IRR: no patients progressed
Patients with TGCT; Phase 2 Cohort A (33 patients), second data cutoff
  Active ROM at Week 25, mean: 77.8%
Patients with TGCT; Phase 2 Cohort A (n = 45), 30 mg twice weekly, first data cutoff
  ORR per RECIST v1.1 by IRR at Week 25: 38%
Patients with TGCT; Phase 2 Cohort A (n = 45), 30 mg twice weekly, no prior anti-CSF1/CSF1R therapy, first data cutoff
  ORR per RECIST v1.1 by IRR: 64%
Patients with TGCT; [8]
  ORR per RECIST v1.1 by IRR: 64%
  ORR per RECIST v1.1 by IRR at Week 25: 38%
  ORR per TVS by IRR: 62%
  ORR per TVS by IRR at Week 25: 51%
Patients with TGCT; Phase 2 Cohort A, second data cutoff
  Active ROM, change from baseline at Week 25, mean (SD): 19.7 (43.5) percentage points and 19.7 percentage points
Patients with TGCT; [9]
  Active ROM of the affected joint at Week 25, mean (SD): 65.2 (37.5) % and 65.2%
  Active ROM, change from baseline to Week 25, mean (SD): 14.1 (27.4) percentage points and 14.1 percentage points
Patients with TGCT; Phase 2 Cohort B (n = 16), 30 mg twice weekly, prior anti-CSF1/CSF1R therapy, first data cutoff
  ORR per RECIST v1.1 by IRR: 44%
Patients with TGCT; [10]
  ORR per RECIST v1.1 by IRR: 37%
  ORR per RECIST v1.1 by IRR at Week 25: 26%
  ORR per TVS by IRR: 42%
  ORR per TVS by IRR at Week 25: 26%
Patients with TGCT; Phase 2 Cohorts A and B, Week 25
  symptomatic benefit across secondary efficacy measures (ORR by TVS, active range of motion, physical function, stiffness, pain): clinically meaningful symptomatic benefit
Patients with TGCT; Phase 2 cohort A, FIG. 9A
  Active ROM at Week 25: patients with decrease: 4 n
  Active ROM at Week 25: patients with increase from baseline: 23 n
  Active ROM at Week 25: patients with no change: 5 n
Patients with TGCT; Phase 2 cohort B, FIG. 9B
  Active ROM at Week 25: patients with decrease: 1 n
  Active ROM at Week 25: patients with increase from baseline: 9 n
  Active ROM at Week 25: patients with no change: 3 n
